In US6429208B1, “Methods and compositions for restoring impaired cellular immune function” (Regents of the University of California, priority 1992, dated 2002):

What was measured:
[1] = system: PBMC from an HIV seropositive subject; assay: Proliferative response to PHA of PBMC from HIV seropositive subjects; format: cell-based, human
Description: (§1) Proliferative assays were performed as previously described (see, for example, Hofmann, B., et al., Cell Immunol (1989) 121:336-48. Briefly, one microcurie ^3H-thymidine was added to cultures 72 hours after stimulation, and after further 24 hours, all cultures were harvested on glass fiber filters with an automatic harvesting machine (Skatron, Lierbyen, Norway), and the incorporated radioactivity was measured in a liquid scintillation counter (Beckman LS 1800) after an addition of 1.5 ml scintillation fluid.

[2] = system: PBMC from HIV seropositive subjects; assay: Intracellular cAMP in PBMC from HIV seropositive subjects; format: cell-based, human; settings: 10 ng/ml for 10 min; decreased from 5.3
Description: The compound 2′,5′ dideoxyadenosine (ddAdo) inhibits adenylate cyclase, the enzyme responsible for the generation of cAMP, by competition for the “P”-binding site (Johnson, J Biochem (1990) 265:11595-11600). […] In one such experiment (FIG. 9A), the intracellular cAMP level decreased to normal levels within 4 hours and remained at this level when tested after 20 hours. The effect of ddAdo was compared with two other adenylate cyclase inhibitors which are naturally occurring adenosine phosphates. When used in equal concentrations, the three inhibitors gave similar reductions in intracellular CAMP levels. For example, when added in 10 ng/ml for 10 min, ddAdo decreased the CAMP levels from 5.3 pmol/10^6 PBMC to 3.6; 3′ AMP to 3.5; and 2′,3′deoxy-AMP reduced the level to 3.2 pmol/10^6 PBMC.
cAMP was determined using a commercial scintillation proximity RIA (Amersham, Arlington Heights, Ill.) following the manufacturer's protocol. PKA activity was determined using a kit from Gibco (Grand Island, N.Y.) and the manufacturer's protocol. For the cAMP assay, cells were lysed and sonicated in assay buffer (provided with the kits). Proliferative assays were performed as described above.
Further purification was achieved by reverse phase chromatography. 3 ml of above solution was applied on C18 Sep-Pak cartridge (Waters) equilibrated with water+0.1% TFA. The column was washed with H2O-TFA until absorbance at 280nm reached baseline. Bound material was eluted from the column by stepwise elution with H2O-acetonitrile-TFA mixtures. There were three peaks on elution curve at 20%, 40% and 70% acetonitrile. The effluent from the above step was rechromatographed again on C18 cartridge and yielded additional quantities of the three products. […] Fraction 2 was added in various PBS dilutions to lymphocytes from HIV seropositive subjects. cAMP was then measured on lysates of these cells after 1 hour.

normal PBMC = assay: PHA-induced proliferation of normal PBMC, 3H-thymidine uptake; format: cell-based, human; settings: for ^3H-Thy. Incorp.: PHA alone 254.2 ± 9.0
Description: Peripheral blood mononuclear cells (PBMC) from healthy blood donors were isolated by Lymphoprep (Nyegaard and Co., Oslo, Norway) density gradient centrifugation. Cell cultures were prepared in Eppendorf tubes and contained 5-10×10^6 cells/ml for phosphotyrosine experiments and 2-5×10^6 cells/ml for the kinase experiments and the cAMP determinations described below. The concentration of PHA added per tube was 10 μg/ml of PHA-P (Wellcome, Beckenham, England). Phorbol 12 myristate-13 acetate (PMA) (P-8139, Sigma, St. Louis, Mo.) was dissolved in dimethylsulfoxide (DMSO) and used in optimal concentrations of 200 ng/ml. The total volume per tube was 1 ml.
as §1
The concentration of Cholera toxoid was 10-0.2 μg/ml and 8-bromoadenosine 3′,5′ cyclic monophosphate (Br-cAMP) was 40-0.2 μg/ml. […] The PTK inhibitor Tyrphostin 25 (Bimol, Plymouth, Pa.) was used in a concentration of 1.0 μg/ml. Tyrphostin 25 has more than 30 fold higher affinity for PTK than for PKC and PKA. HIV components were added to final dilutions of 108-360 μg p24 antigen/mi.
Both Cholera toxoid or Br-cAMP impaired PHA-induced cell proliferation as measured by ^3H-thymidine uptake after 3 days of culture (Table 1). The 50% impairment of proliferation induced by HIV components is similar to the 50% impairment induced by 0.63 μg/ml of Cholera toxoid or […] of Br-cAMP. The experiment confirmed that cAMP impairs PHA-induced proliferation of T lymphocytes.

membrane PKC activity = assay: Membrane PKC activity in PBMC; format: cell-based, human
Description: The reagents were obtained as a kit from Gibco (Grand island, N.Y.) and the manufacturer's protocol was followed. After activation, cell membrane fractions were then obtained by ultracentrifugation (100,000 g for one hour at 4° C.) of sonicated cell lysates without detergent. Membrane fractions were then sonicated in the presence of 0.05% Triton X and the specific PKC activities were determined. Specific PKC activity was determined as the difference between phosphorylation of a PKC specific substrate with and without a specific PKC inhibitor present. The specific PKC substrate was a synthetic peptide from myelin basic protein with an acetylated N-terminal glutamine. The specific PKC inhibitor was a pseudo-substrate peptide which specifically binds to the pseudo-substrate region of the regulatory domain of PKC. The reaction mixture was spotted on cellulose paper, non-bound ^32P-ATP was removed by washing, and the paper discs were counted in a β counter after addition of scintillation fluid. The amounts of lysate over which the assay was linear were determined in initial experiments. All experiments were repeated 2-5 times.

PKA = PKA (Homo sapiens, UniProt P17612); settings: cited from earlier work
PTK = settings: cited from earlier work
[3] = cells not stimulated (control), without inhibitor 1.3 ± 0.2
[4] = cells stimulated by HIV, without inhibitor 3.0 ± 0.2
[5] = cells stimulated by PHA, without inhibitor 4.2 ± 1.6

Molecule	Proliferative response to PHA [1]	cAMP levels [2] [pmol/10^6 PBMC]	PKC membrane activity (membrane PKC activity; [3])	PKC membrane activity (membrane PKC activity; [4])	PKC membrane activity (membrane PKC activity; [5])	further results
N#CC(C#N)=Cc1ccc(O)c(O)c1 [T-23]	enhance proliferation	–	–	–	–	–
Nc1ncnc2c1ncn2[C@@H]1O[C@H](CO)[C@@H](OP(=O)(O)O)[C@H]1O [3′ AMP]	–	3.5	–	–	–	–
Nc1ncnc2c1nc(Br)n2[C@@H]1O[C@@H]2COP(=O)(O)O[C@H]2[C@H]1O [Br-cAMP, 8-bromoadenosine 3′,5′ cyclic monophosphate]	–	–	3.9 ± 1.7 nM of ^32P/minute/10^6 PBMC	2.2 ± 1.5 nM of ^32P/minute/10^6 PBMC	2.1 ± 1.6 nM of ^32P/minute/10^6 PBMC	Concentration inducing 50% impairment of PHA-induced proliferation (normal PBMC; 3 days of culture): 200 µg/mL; Activity, percentage of activity of PHA control (normal PBMC; PHA + 100 μg/ml): 66%; ^3H-Thy. Incorp. (normal PBMC; PHA + 100 μg/ml): 168.7 ± 21.9 cpm ×10^−6; Activity, percentage of activity of PHA control (normal PBMC; PHA + 200 μg/ml): 38%; ^3H-Thy. Incorp. (normal PBMC; PHA + 200 μg/ml): 96.3 ± 14.4 cpm ×10^−6; Activity, percentage of activity of PHA control (normal PBMC; PHA + 400 μg/ml): 16%; ^3H-Thy. Incorp. (normal PBMC; PHA + 400 μg/ml): 41.6 ± 2.1 cpm ×10^−6
O=S(=O)(NCCNC/C=C/c1ccc(Br)cc1)c1cccc2cnccc12 [H-89]	enhance proliferation	–	6.0 ± 1.9 nM of ^32P/minute/10^6 PBMC	12.9 ± 4.7 nM of ^32P/minute/10^6 PBMC	9.4 ± 5.5 nM of ^32P/minute/10^6 PBMC	Fold higher affinity for PKA than for PKC (PKA): 660 fold
2′,3′deoxy-AMP	–	3.2	–	–	–	–
N#CC(C#N)=Cc1cc(O)c(O)c(O)c1 [Tyrophostin-25]	–	–	2.0 ± 0.9 nM of ^32P/minute/10^6 PBMC	4.6 ± 0.0 nM of ^32P/minute/10^6 PBMC	7.7 ± 7.7 nM of ^32P/minute/10^6 PBMC	Fold higher affinity for PTK than for PKC and PKA (PTK): more than 30 fold
